Measured values reported in publication PMC12260505, “First-in-Human Phase I/IIa Study of the First-in-Class CDK2/4/6 Inhibitor PF-06873600 Alone or with Endocrine Therapy in Patients with Breast Cancer” (Clinical Cancer Research, 2025).

Experiments:
Format in all cases: in vivo, human
[1] = Dose-limiting toxicities in dose escalation (modified toxicity probability interval method)
Description: Part 1 included adult patients with HR^+/HER2^− advanced breast cancer or mBC (third- or fourth-line setting), locally recurrent/advanced or metastatic TNBC, or advanced platinum-resistant epithelial ovarian cancer/fallopian tube cancer/primary peritoneal cancer who received oral PF-06873600 at doses of 1 to 50 mg twice daily or oral PF-06873600 plus ET (letrozole or fulvestrant). Primary endpoints for part 1 dose escalation determined safety and tolerability to define dose-limiting toxicities (DLT), estimate the maximum tolerated dose, and select the recommended dose for expansion (RDE). Safety endpoints included adverse events (AE) characterized by type, frequency, severity [as graded by NCI Common Terminology Criteria for Adverse Events (CTCAE) version 4.03], timing, seriousness, and relationship to study therapy. Laboratory abnormalities were characterized by type, frequency, severity (as graded by NCI CTCAE version 4.03), timing, vital sign abnormalities, and heart rate–corrected QT interval (e.g., QTcF). Secondary endpoints included PK, preliminary antitumor activity as assessed using RECIST version 1.1, time-to-event endpoints including objective response rate (ORR), duration of response (DoR), progression-free survival (PFS), time to progression (TTP), and modulation of tumor CDK biomarkers [phosphorylated Rb (pRb), Ki67]. Exploratory endpoints included molecular profiling of tumor and ctDNA and the relationship to clinical outcome.
In part 1A, dose escalation monotherapy, patients received escalating doses of a single-agent immediate release (IR) formulation of PF-06873600, 1 to 50 mg twice daily orally on a continuous basis, with dose escalation following the modified toxicity probability interval method. Seven dose levels were evaluated: 1, 2, 5, 10, 25, 35, and 50 mg. An alternative intermittent dosing regimen (5 days on/2 days off) was also explored at 35 mg twice daily. Part 1B combination dose-finding involved PF-06873600 IR 25 mg twice daily with ET (letrozole or fulvestrant, each administered per standard of care). Letrozole was administered orally once daily together with PF-06873600. No dose adjustment for letrozole was permitted, but dosing interruptions were allowed. Fulvestrant 500 mg was administered intramuscularly on cycle 1 day 1 and day 15, cycle 2 day 1, and then monthly thereafter (±3 days) to accommodate dosing on day 1 of each cycle. No dose adjustment for fulvestrant was permitted. Part 1C evaluated two modified release (MR) formulations of PF-06873600: one in the single-dose setting and the other in the twice-daily setting. A cycle was defined as 28 days, regardless of missed doses or dose delays.
DLT was the primary endpoint of the study, summarized by dose level using the per-protocol analysis set for patients in the dose escalation portion of the study. Efficacy analysis was summarized by dose cohorts for part 2 of the study. For part 1, no formal efficacy analysis was presented. For part 2, tumor response was presented in the form of patient data listings that included, but were not limited to, tumor type, starting dose, tumor response at each visit, and best overall response. In addition, progression date, death date, date of first response, last tumor assessment date, and date of last contact were listed. ORR, PFS, overall survival, TTP, and DoR were summarized and presented as data permitted. For response-based metrics (best overall response, ORR, and DoR), analyses were presented on the basis of confirmed responses. Analyses of PFS and TTP were defined as the time from the date of the first dose. Summaries of the number and percentage of patients with PFS and TTP and data listings by tumor type and dose were generated based on data availability. The 95% confidence intervals (CI) for medians and quartiles were generated based on the Brookmeyer–Crowley method, whereas CIs for the estimated probability of an event at a particular time point were generated using the Greenwood formula. […]

phosphorylated Rb (pRb) = assay: IHC of pRb (H-score) in paired tumor biopsies
Description: The pharmacodynamic effects of PF-06873600 were assessed by IHC staining of pRb and Ki67 in tumor biopsy samples collected at screening and day 1 of cycle 2 (4 hours after dose). Immunostaining was performed on […] formalin-fixed, paraffin-embedded tissue sections using rabbit monoclonal anti-Rb (Ser807/811) antibody (clone D20B12, Cell Signaling Technology) and rabbit monoclonal anti-Ki67 antibody (Ventana Medical Systems), respectively. pRb and Ki67 expressions were assessed semiquantitatively by a board-certified pathologist. Scoring was performed using the percentage of cells positive for Ki67 or a histo-score (H-score) methodology for pRb based on staining intensity and the percentage of positive cells. Intensity was scored as 0, none; 1, weak; 2, moderate; or 3, strong, and H-scores were calculated as follows: H-score = [fraction of cells with intensity grade 1 (%)] + [fraction of cells with intensity grade 2 (%) × 2] + [fraction of cells with intensity grade 3 (%) × 3].

ctDNA = ctDNA molecular response (Guardant360, meanVAF change); settings: plus fulvestrant; for Median ctDNA molecular response: combined parts 2A and 2C; for Median change in ctDNA meanVAF: cycle 1 day 15 from cycle 1 day 1
Description: Plasma samples were collected at cycle 1 day 1, cycle 1 day 15, and the end of treatment (EOT). Genomic alterations in ctDNA were detected using the next-generation sequencing–based 74-gene Guardant360 platform (Guardant Health). ctDNA molecular response between the two samples was determined as described by Mack and colleagues ([9]). Briefly, after subtracting germline variants and potential clonal hematopoiesis of indeterminate potential, the mean variant allele frequency (meanVAF) of somatic variants (including single-nucleotide variants, insertions and deletions, and fusions) with a mutant molecular count above a proprietary threshold was calculated for each sample by averaging the VAFs of all variants detected among the two samples. The relative change of meanVAF of the posttreatment sample from the baseline sample was then calculated as the ctDNA molecular response. Samples lacking somatic variants with sufficient mutant molecular counts or the absence of any somatic alterations at both time points were considered ctDNA low and not evaluable for molecular response.

[2] = part 1A 35 mg twice daily, N = 2, DLT-evaluable set
[3] = part 1A 50 mg twice daily, N = 8, DLT-evaluable set

## C[C@@]1(O)CCC[C@H]1n1c(=O)c(C(F)F)cc2cnc(NC3CCN(S(C)(=O)=O)CC3)nc21 [PF-06873600]
[1]; 25 mg twice daily, single-agent or combination groups
  DLTs at the monotherapy RDE: No DLTs
[1]; [2]
  DLT, Cardiac arrest: 0 n (%)
  DLT, Colitis: 0 n (%)
  DLT, Fatigue: 0 n (%)
  DLT, Febrile neutropenia: 0 n (%)
  DLT, Multiple organ dysfunction syndrome: 0 n (%)
  DLT, Neutrophil count decreased: 2 (100.0) n (%)
  DLT, Platelet count decreased: 1 (50.0) n (%)
  DLT, Thrombocytopenia: 0 n (%)
  Patients with any DLTs: 2 (100.0) n (%)
[1]; [3]
  DLT, Cardiac arrest: 1 (12.5) n (%)
  DLT, Colitis: 1 (12.5) n (%)
  DLT, Fatigue: 1 (12.5) n (%)
  DLT, Febrile neutropenia: 3 (37.5) n (%)
  DLT, Multiple organ dysfunction syndrome: 1 (12.5) n (%)
  DLT, Neutrophil count decreased: 0 n (%)
  DLT, Platelet count decreased: 0 n (%)
  DLT, Thrombocytopenia: 1 (12.5) n (%)
  Patients with any DLTs: 4 (50.0) n (%)
[1]; part 1A, 42 patients evaluable for DLT
  Patients with DLTs (all treatment-related): 14.3%
[1]; single-agent and combination dosing groups
  Recommended dose for expansion (RDE): 25 mg twice daily
Phosphorylated Rb (pRb); IR 25 mg twice daily monotherapy, cycle 2 day 1, HR+/HER2− mBC tumor biopsies
  Median change in pRb H-score from baseline: –16.5%
Phosphorylated Rb (pRb); IR 25 mg twice daily/fulvestrant combination, cycle 2 day 1
  Median percentage change in pRb H-score from baseline: –31.9%
ctDNA; EOT
  Median ctDNA molecular response: 6%
ctDNA; cycle 1 day 15
  Median ctDNA molecular response: −60%
ctDNA; part 2A (28 evaluable)
  Median change in ctDNA meanVAF: −61%
ctDNA; part 2C (14 evaluable)
  Median change in ctDNA meanVAF: −54%
